Measurements reported in patent US9663495B2 (YUHAN CORPORATION, priority 2013, dated 2017).

Assays:
male C57BL/6 mice = assay: Oral Glucose Tolerance Test (OGTT); assay type: in vivo; parameters: concentration or dose not given beside the values; conditions: fasted male C57BL/6 mice, oral administration 30 minutes before oral glucose; AUCglucose 0-120 minutes versus negative control group
Procedure: The oral glucose tolerance test of the compounds according to the present invention was carried out according to the procedures disclosed in Andrikopoulos S, Blair A R, Deluca N, Fam B C, Proietto J, Am J Physiol Endocrinol Metab. 2008, Vol 295, E1323-1332. Briefly, male C57BL/6 mice at 8 to 9 weeks of age having 20 g to 25 g of body weight (Orient Bio Inc. Korea) were allowed to acclimatize to the surroundings (temperature: 20±2° C., humidity: 40-60%, light/dark cycle: 12 hours) for 1 week. During the acclimatization, the mice were given ad libitum access to feed and water. The mice were fasted from 18 hours before the test, except for allowing free access to water. After measuring the mice′ body weights and blood sugar levels, they were divided into test groups so as to have similar blood sugar levels. The mice were orally administered with a mixture of test compound and the diluent (0.5% solution of MC1500 (Sigma)). At 30 minutes after the administration, the mice were also orally administered with 20% glucose solution in an amount of 0.1 ml per 10 g of body weight. The blood samples were taken from the tail vain at 0 (right before the administration of the glucose solution), 15, 30, 60, 90, and 120 minutes after the administration of the glucose solution; and the blood sugar levels thereof were measured with a blood glucose test meter (GlucoDr. AGM-3000, All Medicus Co. Ltd.). The graph for blood sugar level on time for each test compound was plotted from the respective blood sugar values; and then area under the curve (AUCglucose) was determined. The inhibition rate of blood sugar (%) was calculated from the following formula. Inhibition rate of blood sugar (%)=[(AUCglucose of the negative control group−AUCglucose of the test group)/AUCglucose of the negative control group]×100

GPR119 [1] = target: T1, GPR119 (Homo sapiens, UniProt Q8TDV5); assay: cAMP Accumulation Assay (GPR119 CRE-bla CHO-K1 cells, LiveBLAzer-FRET B/G); assay type: cell-based; conditions: (Emax of the test compound/Emax of MBX-2982)x100, 5 hours incubation
T1 construct: host or cells: CHO-K1 (GPR119 CRE-bla, doxycycline-induced)
T1 sequence (Q8TDV5 1-335): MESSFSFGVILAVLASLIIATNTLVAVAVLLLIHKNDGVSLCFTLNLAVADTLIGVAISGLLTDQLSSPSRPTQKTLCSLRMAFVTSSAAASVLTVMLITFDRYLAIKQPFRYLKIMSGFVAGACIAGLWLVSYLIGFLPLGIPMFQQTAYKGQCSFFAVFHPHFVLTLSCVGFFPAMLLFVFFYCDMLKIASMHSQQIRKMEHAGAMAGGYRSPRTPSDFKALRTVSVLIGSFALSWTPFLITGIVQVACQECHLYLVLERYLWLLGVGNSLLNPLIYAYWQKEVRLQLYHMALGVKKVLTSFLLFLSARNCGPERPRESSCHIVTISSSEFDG

GPR119 [2] = target: T1, GPR119; assay: as above; assay type: cell-based; conditions: for EC50: 5 hours incubation; for Emax (Fold): maximum activity, response ratio versus non-treated control group
Procedure: 32 μl of an assay medium (DMEM supplemented with GlutaMax™ 99%, dialyzed FBS 1%, non-essential amino acid 1 mM, HEPES 25 mM, penicillin 100 U/ml, and streptomycin 100 μg/ml) was added to each well of a 384 black well plate and then the GPR119 CRE-bla CHO-K1 cells (Invitrogen) were seeded in 1×10^4 cells per well. Doxycycline was dissolved in the assay medium in the concentration of 1 μg/ml. The resulting solution (4 μl) was added to each well, which was then incubated in a 5% CO 2 incubator at 37° C. for about 20 to 24 hours. Each test compounds were diluted with the assay medium to prepare 10 samples, which have concentrations ranging from […], respectively. Each samples (8 μl) was added to each well, which was then incubated in a 5% CO2 incubator at 37° C. for 5 hours. In case of the control group, the well was treated with a solution (8 μl) prepared by diluting dimethyl sulfoxide (DMSO) in the assay medium to 1%. The substrate mixture (8 μl) was added to each well, which was then left under darkness at room temperature for 2 hours. The substrate mixture contains the followings: 1 mM LiveBLAzer™-FRET B/G(CCF4-AM) substrate 6 μl, solution B 60 μl, solution C 904 μl, and solution D 30 μl.
Fluorescence intensity was determined under the wavelength conditions of 400 nm/465 nm (excitation/emission) for the blue channel and 400 nm/535 nm (excitation/emission) for the green channel, with the fluorescence microplate reader (SpectraFluor Plus. TECAN). The net activity of each well was calculated by subtracting the average value of the cell-free control group from the value of the unstimulated (i.e., non-treated) control group or the stimulated (i.e., test compound-treated) group at each wavelength. MBX-2982 (Metabolex) was used as a control drug. The response ratio was calculated by dividing the net signal ratio (465 nm/535 nm) of the control drug or the test compound by the net signal ratio (465 nm/535 nm) of the non-treated control group. The relative ratio (R.R) was calculated by dividing the maximum activity [Emax (fold)] of the test compound (i.e., % activity in comparison with the background) by the maximum activity [Emax (fold)] of the control drug (MBX-2982) [Emax (% RR)=(Emax of the test compound/Emax of MBX-2982)×100]. EC50 (half maximal effective concentration) was calculated using the software for statistical analysis “Prism 5.0 (GraphPad)”, based on the values obtained according to concentrations of the test compounds.

Structure (SMILES)	Inhibition rate of blood sugar (%) (male C57BL/6 mice)	Emax (% RR) (GPR119 [1])	EC50 (GPR119 [2])	Emax (Fold) (GPR119 [2])
CCN(CC)CCn1ncn(-c2ccc(-c3cnc(N4CCC(c5nc(C(C)C)no5)CC4)c(C#N)c3)cc2F)c1=O [Example 63, 5-(4-(1-(2-(diethylamino)ethyl)-5-oxo-1H-1,2,4-triazol-4(5H)-yl)-3-fluorophenyl)-2-(4-(3-isopropyl-1,2,4-oxadiazol-5-yl)piperidin-1-yl)nicotinonitrile]	27.7%			
CCc1cnc(N2CCN(c3ncc(-c4ccc(-n5cnn([C@@H]6CCOC6)c5=O)c(F)c4)cc3C#N)CC2)nc1 [Example 33, (R)-2-(4-(5-ethylpyrimidin-2-yl)piperazin-1-yl)-5-(3-fluoro-4-(5-oxo-1-(tetrahydrofuran-3-yl)-1H-1,2,4-triazol-4(5H)-yl)phenyl)nicotinonitrile]	20.9%	125.7 % RR	4.4 nM	4.0 Fold
CCc1cnc(N2CCN(c3ncc(-c4ccc(-n5cnn(C(C)C)c5=O)c(F)c4)cc3C#N)CC2)nc1 [Example 44, 2-(4-(5-ethylpyrimidin-2-yl)piperazin-1-yl)-5-(3-fluoro-4-(1-isopropyl-5-oxo-1H-1,2,4-triazol-4(5H)-yl)phenyl)nicotinonitrile sulfonate]	27.0%			
CCc1cnc(N2CCN(c3ncc(-c4ccc(-n5cnn(C(C)C)c5=O)c(F)c4)cc3C#N)CC2)nc1.Cl [Example 43, 2-(4-(5-ethylpyrimidin-2-yl)piperazin-1-yl)-5-(3-fluoro-4-(1-isopropyl-5-oxo-1H-1,2,4-triazol-4(5H)-yl)phenyl)nicotinonitrile hydrochloride]	25.2%	130.9 % RR		3.8 Fold
C[C@H]1CN(C(=O)OC(C)(C)C)CCN1c1ncc(-c2ccc(-n3cnn(C)c3=O)c(F)c2)cn1 [Example 1, (S)-tert-butyl 4-(5-(3-fluoro-4-(1-methyl-5-oxo-1H-1,2,4-triazol-4(5H)-yl)phenyl)pyrimidin-2-yl)-3-methylpiperazin-1-carboxylate]	22.3%	123.9 % RR	59 nM	2.9 Fold
CC(C)c1nc(C2CCN(c3ncc(-c4ccc(-n5cnn(CC(N)=O)c5=O)cc4)cc3C#N)CC2)no1 [Example 72, 2-(4-(4-(5-cyano-6-(4-(5-isopropyl-1,2,4-oxadiazol-3-yl)piperidin-1-yl)pyridin-3-yl)phenyl)-5-oxo-4,5-dihydro-1H-1,2,4-triazol-1-yl)acetamide]	16.5%			
CCN(CC)CCn1ncn(-c2ccc(-c3cnc(N4CCC(N(C)C(=O)OC(C)(C)C)CC4)c(C#N)c3)cc2F)c1=O [Example 61, tert-butyl 1-(3-cyano-5-(4-(1-(2-(diethylamino)ethyl)-5-oxo-1H-1,2,4-triazol-4(5H)-yl)-3-fluorophenyl)pyridin-2-yl)piperidin-4-yl(methyl)carbamate]	18.0%			
CCc1cnc(N2CCN(c3ncc(-c4ccc(-n5cnn(CCN(CC)CC)c5=O)c(F)c4)cc3C#N)[C@@H](C)C2)nc1 [Example 10, (S)-5-(4-(1-(2-(diethylamino)ethyl)-5-oxo-1H-1,2,4-triazol-4(5H)-yl)-3-fluorophenyl)-2-(4-(5-ethylpyrimidin-2-yl)-2-methylpiperazin-1-yl)nicotinonitrile]	23.8%	104.5 % RR	8 nM	2.6 Fold
CCCn1ncn(-c2ccc(-c3ccc(N4CCN(C(=O)OC(C)(C)C)CC4C(F)(F)F)nc3)cc2F)c1=O (centres unmarked) [Example 50, tert-butyl 4-(5-(3-fluoro-4-(5-oxo-1-propyl-1H-1,2,4-triazol-4(5H)-yl)phenyl)pyridin-2-yl)-3-(trifluoromethyl)piperazin-1-carboxylate]	15.6%			
CCc1cnc(N2CCN(c3ncc(-c4ccc(-n5cnn(COC)c5=O)c(F)c4)cc3C#N)[C@@H](C)C2)nc1 [Example 22, (S)-2-(4-(5-ethylpyrimidin-2-yl)-2-methylpiperazin-1-yl)-5-(3-fluoro-4-(1-(methoxymethyl)-5-oxo-1H-1,2,4-triazol-4(5H)-yl)phenyl)nicotinonitrile]		119.3 % RR	10.2 nM	3.2 Fold
CCc1cnc(N2CCN(c3ncc(-c4ccc(-n5cn[nH]c5=O)c(F)c4)cc3C#N)[C@@H](C)C2)nc1 [Example 21, (S)-2-(4-(5-ethylpyrimidin-2-yl)-2-methylpiperazin-1-yl)-5-(3-fluoro-4-(5-oxo-1H-1,2,4-triazol-4(5H)-yl)phenyl)nicotinonitrile]		102.0 % RR	2 nM	2.9 Fold
CCc1cnc(N2CCN(c3ncc(-c4ccc(-n5cnn(CC(=O)OC)c5=O)c(F)c4)cc3C#N)[C@@H](C)C2)nc1 [Example 13, (S)-methyl 2-(4-(4-(5-cyano-6-(4-(5-ethylpyrimidin-2-yl)-2-methylpiperazin-1-yl)pyridin-3-yl)-2-fluorophenyl)-5-oxo-4,5-dihydro-1H-1,2,4-triazol-1-yl)acetate]		102.0 % RR	114 nM	2.9 Fold
CCc1cnc(N2CCN(c3ncc(-c4ccc(-n5cnn(CCOC)c5=O)c(F)c4)cc3C#N)CC2)nc1 [Example 31, 5-(4-(1-(2-methoxyethyl)-5-oxo-1H-1,2,4-triazol-4(5H)-yl)-3-fluorophenyl)-2-(4-(5-ethylpyrimidin-2-yl)piperazin-1-yl)nicotinonitrile]		148.7 % RR	10 nM	3.4 Fold
CCCn1ncn(-c2ccc(-c3cnc(N4CCN(c5noc(C(C)C)n5)CC4)c(C#N)c3)cc2F)c1=O.Cl [Example 49, 5-(3-fluoro-4-(5-oxo-1-propyl-1H-1,2,4-triazol-4(5H)-yl)phenyl)-2-(4-(5-isopropyl-1,2,4-oxadiazol-3-yl)piperazin-1-yl)nicotinonitrile hydrochloride]		144.7 % RR	7.3 nM	4.2 Fold
C[C@H]1CN(c2ccc(C(F)(F)F)cn2)CCN1c1ncc(-c2ccc(-n3cnn(C)c3=O)c(F)c2)cn1 [Example 8, (S)-4-(2-fluoro-4-(2-(2-methyl-4-(5-(trifluoromethyl)pyridin-2-yl)piperazin-1-yl)pyrimidin-5-yl)phenyl)-1-methyl-1H-1,2,4-triazol-5(4H)-one]		113.4 % RR	5 nM	2.5 Fold
